Assay results as given in patent publication US20050112573A1, “Method of detecting toxic substance” (priority 2001, published 2005).

Tested on: yeast genes (level of expressed mRNA)
Experiment: DNA chip analysis of expressed mRNA of yeast genes after 2 h culture with a toxic chemical substance
Type: cell-based, Saccharomyces cerevisiae S288C
Procedure: Yeast (Saccharomyces cerevtisiae S288C (α SUC2mal mel gap2 CUP1)) were cultured at 25° C. on YPD medium (yeast extract 1%, polypepton 2%, glucose 2%). One of toxic chemical substances was added to the cell at logarithmic growth phase, and the cell was further cultured for two hours. Cell was cultured without any chemical substance in the same condition, and was used as control. Concentrations of the chemical substances were defined to inhibit the growth of the yeast but not lead to death.
After the completion of cultivation, the culture was centrifuged to collect the cells. To the cells, sodium acetate buffer (50 mM sodium acetate, 10 mM EDTA, 1% SDS) was added, and the mixture was shaken at 65° C. for five minutes, followed by returning to room temperature, and obtaining the supernatant, which procedure was repeated two times. To the supernatant, ½ amount of a solution of phenol/chloroform was added, and the mixture was centrifuged to give a supernatant, which was added with an equal amount of chloroform, and the mixture was centrifuged to give a supernatant. To the supernatant, an equal amount of isopropanol containing 0.3 M sodium acetate was added, and the mixture was allowed to stand at room temperature for 30 minutes, after which the mixture was centrifuged to give a sediment of the whole RNAs. Seventy % ethanol was added to the sediment, and the mixture was again centrifuged to give a sediment, which was then dried and dissolved in water. mRNA was isolated from the whole RNAs as followings. In view of the fact that a poly A chain is attached to the 3′ terminus of mRNA, a polynucleotide having a poly T structure which was immobilized on the surface of latex beads was used to trap the mRNA, and then the mRNA was washed and eluted with spine column (Oligotex-dT30<Super>mRNA Purification Kit, Takara). Reverse transcription of the mRNA was conducted with a reverse transcriptase (Super Script II Reverse Transcriptase; catalogue No. 18064-014, GibcoBRL) using fluorescence-labeled nucleotides to give cDNAs that were introduced with Cy3-dUTP or Cy5-dUTP during the reverse transcription.
The labeled cDNAs were dissolved in TE buffer (10 mM Tris-HCl/1 mM EDTA, pH8.0), and the solution was dropped on the DNA chip containing the whole genes of yeast (DNA Chip Research Inc. Japan) so that the cDNAs were hybridized on the DNA chip at 65° C. for over 12 hours. The fluoresces intensity of the DNA chip was read with a scanner, and the ratio relative to the fluorescence intensity resulting from the absence of chemical substance was estimated as the following, which is shown in Tables 1 to 9: [formula]
In the Tables, “Intensity” indicated in the rightmost column is a value of the level of expressed mRNA of each gene in control cells as divided by the average level of the expressions of the whole genes.

O=[N+]([O-])c1cc[n+]([O-])c2ccccc12 [(5), 4-nitroquinolin-N-oxide]
The level of expressed mRNA in the presence of chemical substance/The level of expressed mRNA in the absence of chemical substance (yeast gene YAR010C): 1.0
The level of expressed mRNA in the presence of chemical substance/The level of expressed mRNA in the absence of chemical substance (yeast gene YBL005W-A): 1.3
The level of expressed mRNA in the presence of chemical substance/The level of expressed mRNA in the absence of chemical substance (yeast gene YBL041W): 1.6
The level of expressed mRNA in the presence of chemical substance/The level of expressed mRNA in the absence of chemical substance (yeast gene YBL043W): 1.1
The level of expressed mRNA in the presence of chemical substance/The level of expressed mRNA in the absence of chemical substance (yeast gene YBL078C): 0.7
The level of expressed mRNA in the presence of chemical substance/The level of expressed mRNA in the absence of chemical substance (yeast gene YBR214W): 1.1
The level of expressed mRNA in the presence of chemical substance/The level of expressed mRNA in the absence of chemical substance (yeast gene YCL020W): 0.5
The level of expressed mRNA in the presence of chemical substance/The level of expressed mRNA in the absence of chemical substance (yeast gene YCL027W): 1.2
The level of expressed mRNA in the presence of chemical substance/The level of expressed mRNA in the absence of chemical substance (yeast gene YCR004C): 1.2
The level of expressed mRNA in the presence of chemical substance/The level of expressed mRNA in the absence of chemical substance (yeast gene YCR071C): 1.2
The level of expressed mRNA in the presence of chemical substance/The level of expressed mRNA in the absence of chemical substance (yeast gene YCR088W): 1.1
The level of expressed mRNA in the presence of chemical substance/The level of expressed mRNA in the absence of chemical substance (yeast gene YDL008W): 1.8
The level of expressed mRNA in the presence of chemical substance/The level of expressed mRNA in the absence of chemical substance (yeast gene YDL238C): 0.9
The level of expressed mRNA in the presence of chemical substance/The level of expressed mRNA in the absence of chemical substance (yeast gene YDR055W): 1.7
The level of expressed mRNA in the presence of chemical substance/The level of expressed mRNA in the absence of chemical substance (yeast gene YDR084C): 1.2
The level of expressed mRNA in the presence of chemical substance/The level of expressed mRNA in the absence of chemical substance (yeast gene YDR085C): 0.9
The level of expressed mRNA in the presence of chemical substance/The level of expressed mRNA in the absence of chemical substance (yeast gene YDR104C): 1.3
The level of expressed mRNA in the presence of chemical substance/The level of expressed mRNA in the absence of chemical substance (yeast gene YDR115W): 1.4
The level of expressed mRNA in the presence of chemical substance/The level of expressed mRNA in the absence of chemical substance (yeast gene YDR259C): 1.0
The level of expressed mRNA in the presence of chemical substance/The level of expressed mRNA in the absence of chemical substance (yeast gene YDR315C): 0.9
The level of expressed mRNA in the presence of chemical substance/The level of expressed mRNA in the absence of chemical substance (yeast gene YDR358W): 1.4
The level of expressed mRNA in the presence of chemical substance/The level of expressed mRNA in the absence of chemical substance (yeast gene YDR388W): 0.7
The level of expressed mRNA in the presence of chemical substance/The level of expressed mRNA in the absence of chemical substance (yeast gene YDR432W): 1.6
The level of expressed mRNA in the presence of chemical substance/The level of expressed mRNA in the absence of chemical substance (yeast gene YDR481C): 1.0
The level of expressed mRNA in the presence of chemical substance/The level of expressed mRNA in the absence of chemical substance (yeast gene YDR510W): 0.7
The level of expressed mRNA in the presence of chemical substance/The level of expressed mRNA in the absence of chemical substance (yeast gene YEL042W): 0.7
The level of expressed mRNA in the presence of chemical substance/The level of expressed mRNA in the absence of chemical substance (yeast gene YEL066W): 0.8
The level of expressed mRNA in the presence of chemical substance/The level of expressed mRNA in the absence of chemical substance (yeast gene YER039C): 1.5
The level of expressed mRNA in the presence of chemical substance/The level of expressed mRNA in the absence of chemical substance (yeast gene YER107C): 1.3
The level of expressed mRNA in the presence of chemical substance/The level of expressed mRNA in the absence of chemical substance (yeast gene YER130C): 1.7
The level of expressed mRNA in the presence of chemical substance/The level of expressed mRNA in the absence of chemical substance (yeast gene YFL028C): 1.7
The level of expressed mRNA in the presence of chemical substance/The level of expressed mRNA in the absence of chemical substance (yeast gene YFL043C): 1.2
The level of expressed mRNA in the presence of chemical substance/The level of expressed mRNA in the absence of chemical substance (yeast gene YGL158W): 1.0
The level of expressed mRNA in the presence of chemical substance/The level of expressed mRNA in the absence of chemical substance (yeast gene YGL229C): 1.0
The level of expressed mRNA in the presence of chemical substance/The level of expressed mRNA in the absence of chemical substance (yeast gene YGR136W): 1.2
The level of expressed mRNA in the presence of chemical substance/The level of expressed mRNA in the absence of chemical substance (yeast gene YGR189C): 0.7
The level of expressed mRNA in the presence of chemical substance/The level of expressed mRNA in the absence of chemical substance (yeast gene YGR213C): 1.2
The level of expressed mRNA in the presence of chemical substance/The level of expressed mRNA in the absence of chemical substance (yeast gene YGR257C): 1.3
The level of expressed mRNA in the presence of chemical substance/The level of expressed mRNA in the absence of chemical substance (yeast gene YHR004C): 1.5
The level of expressed mRNA in the presence of chemical substance/The level of expressed mRNA in the absence of chemical substance (yeast gene YHR071W): 1.5
The level of expressed mRNA in the presence of chemical substance/The level of expressed mRNA in the absence of chemical substance (yeast gene YHR139C): 1.3
The level of expressed mRNA in the presence of chemical substance/The level of expressed mRNA in the absence of chemical substance (yeast gene YHR142W): 1.3
The level of expressed mRNA in the presence of chemical substance/The level of expressed mRNA in the absence of chemical substance (yeast gene YIL123W): 0.6
The level of expressed mRNA in the presence of chemical substance/The level of expressed mRNA in the absence of chemical substance (yeast gene YIL140W): 0.8
The level of expressed mRNA in the presence of chemical substance/The level of expressed mRNA in the absence of chemical substance (yeast gene YJL073W): 1.2
The level of expressed mRNA in the presence of chemical substance/The level of expressed mRNA in the absence of chemical substance (yeast gene YJL089W): 1.1
The level of expressed mRNA in the presence of chemical substance/The level of expressed mRNA in the absence of chemical substance (yeast gene YJL116C): 1.3
The level of expressed mRNA in the presence of chemical substance/The level of expressed mRNA in the absence of chemical substance (yeast gene YJR004C): 1.1
The level of expressed mRNA in the presence of chemical substance/The level of expressed mRNA in the absence of chemical substance (yeast gene YJR086W): 1.3
The level of expressed mRNA in the presence of chemical substance/The level of expressed mRNA in the absence of chemical substance (yeast gene YKL008C): 0.9
